≈ marks a conversion by molar mass, not a printed value.
Experiments:
Assay type in all cases: functional
[1] = system: Pseudomonas aeruginosa; test: Antimicrobial activity against Pseudomonas aeruginosa after 48 hrs by twofold serial dilution method
[2] = system: KB; test: Cytotoxicity against human KB cells after 72 hrs; settings: read-out: ED50 (the source's name)
[3] = Cytotoxicity against human colon cancer cells after 72 hrs; settings: Cancer cell lines, read-out: ED50 (the source's name)
[4] = system: P388; test: Cytotoxicity against mouse P388 cells after 48 hrs; settings: P388, 48 h, read-out: ED50 (the source's name)
[5] = Cytotoxicity against human breast cancer cells after 72 hrs; settings: Cancer cell lines, read-out: ED50 (the source's name)
[6] = system: Bacillus subtilis; test: Antimicrobial activity against Bacillus subtilis ATCC 6633 after 24 hrs by twofold serial dilution method; settings: ATCC 6633, 24 h
[7] = Cytotoxicity against human melanoma cells after 72 hrs; settings: Melanoma cell, read-out: ED50 (the source's name)
[8] = Cytotoxicity against human lung cancer cells after 72 hrs; settings: Cancer cell lines, read-out: ED50 (the source's name)
[9] = system: Mycolicibacterium smegmatis; test: Antimicrobial activity against Mycobacterium smegmatis ATCC 607 after 48 hrs by twofold serial dilution method; settings: ATCC 607, 48 h
[10] = system: Escherichia coli; test: Antimicrobial activity against Escherichia coli after 48 hrs by twofold serial dilution method
[11] = system: Staphylococcus aureus; test: Antimicrobial activity against Staphylococcus aureus ATCC 6538 after 24 hrs by twofold serial dilution method; settings: ATCC 6538, 24 h

MIC [1] [µg/mL] | MIC [6] [µg/mL] | MIC [9] [µg/mL] | MIC [10] [µg/mL] | MIC [11] [µg/mL] | Compound | EC50 [2] [µg/mL] | EC50 [3] [µg/mL] | EC50 [4] [µg/mL] | EC50 [5] [µg/mL] | EC50 [7] [µg/mL] | EC50 [8] [µg/mL]
> 100 | 0.39 (≈ 0.854 µM) | 1.56 (≈ 3.42 µM) | > 100 | 3.12 (≈ 6.83 µM) | CCC(=O)C1=C(O)C(C)(C)C(O)=C(Cc2c(O)c3c(c(C(C)=O)c2O)OC(C)(C)C=C3)C1=O [DRUMMONDIN B] | 3.1 (≈ 6.79 µM) | 6.3 (≈ 13.8 µM) | 1.9 (≈ 4.16 µM) |  | 5 (≈ 11 µM) | 7 (≈ 15.3 µM)
> 100 | 0.78 (≈ 1.76 µM) | 6.25 (≈ 14.1 µM) | > 100 | 3.12 (≈ 7.05 µM) | CC(=O)C1=C(O)C(C)(C)C(O)=C(Cc2c(O)c3c(c(C(C)=O)c2O)OC(C)(C)C=C3)C1=O [DRUMMONDIN C] | 8.6 (≈ 19.4 µM) | 11 (≈ 24.9 µM) | 2.8 (≈ 6.33 µM) | 5.1 (≈ 11.5 µM) | 12 (≈ 27.1 µM) | 8.7 (≈ 19.7 µM)
> 100 | 0.78 (≈ 1.56 µM) | 1.56 (≈ 3.13 µM) | > 100 | 0.78 (≈ 1.56 µM) | CC(=O)C1=C(O)C(C)(CC=C(C)C)C(O)=C(Cc2c(O)c(CC=C(C)C)c(O)c(C(C)=O)c2O)C1=O (stereo not drawn) [DRUMMONDIN F] | 18 (≈ 36.1 µM) | 42 (≈ 84.2 µM) | 21 (≈ 42.1 µM) | 21 (≈ 42.1 µM) | > 50 | 30 (≈ 60.2 µM)

Continued, molecule first:

Compound | MIC [1] [µg/mL] | MIC [6] [µg/mL] | MIC [9] [µg/mL] | MIC [10] [µg/mL] | MIC [11] [µg/mL] | EC50 [2] [µg/mL] | EC50 [3] [µg/mL] | EC50 [4] [µg/mL] | EC50 [5] [µg/mL] | EC50 [7] [µg/mL] | EC50 [8] [µg/mL]
CCC(=O)C1=C(O)C(C)(C)C(O)=C(CC2=C(O)C(C)(C)C(O)=C(C(=O)CC)C2=O)C1=O | > 100 | 12.5 (≈ 28.9 µM) | 50 (≈ 116 µM) | > 100 | 50 (≈ 116 µM) | > 50 | > 50 | > 50 | > 50 | > 50 | > 50
CC(=O)C1=C(O)C(C)(C)C(O)=C(CC2=C(O)C(C)(C)C(O)=C(C(C)=O)C2=O)C1=O | > 100 | 50 (≈ 124 µM) | 100 (≈ 247 µM) | > 100 | 100 (≈ 247 µM) | > 50 | > 50 | > 50 | > 50 | > 50 | > 50
CCC(=O)C1=C(O)C(C)(C)C(O)=C(Cc2c(O)c3c(c(C(=O)CC)c2O)OC(C)(C)C=C3)C1=O [DRUMMONDIN A] | > 100 | 0.78 (≈ 1.66 µM) | 1.56 (≈ 3.32 µM) | > 100 | 1.56 (≈ 3.32 µM) | 4.5 (≈ 9.56 µM) | 6.6 (≈ 14 µM) | 2.1 (≈ 4.46 µM) | 3.4 (≈ 7.23 µM) | 8 (≈ 17 µM) | 4.5 (≈ 9.56 µM)
CN[C@@H]1[C@H](O[C@H]2[C@H](O[C@H]3[C@H](O)[C@@H](O)[C@H](N=C(N)N)[C@@H](O)[C@@H]3N=C(N)N)O[C@@H](C)[C@]2(O)C=O)O[C@@H](CO)[C@H](O)[C@H]1O [STREPTOMYCIN] |  | 0.78 (≈ 1.34 µM) | 3.12 (≈ 5.36 µM) |  | 6.25 (≈ 10.7 µM) |  |  |  |  |  | 
